PubChem BioAssay AID248 (DTP/NCI, 2004)
Where “and” joins values, the source holds several entries; their conditions need not be identical. Equal entries are not always repeated. Inconclusive results and toxic doses are left out. Cut-off read from the data, not from the text of the source: active = T/C of 150% or more; inactive = T/C below 125%.

System: L1210 leukemia ip in BDF1 mice, survival T/C
Assay: NCI In Vivo Anticancer Drug Screen. Data for tumor model L1210 Leukemia (intraperitoneal) in B6D2F1 (BDF1) mice
Conditions: endpoint: mean survival time, higher = longer survival
Method in brief: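 Tumor was transplanted into mice, which were then dosed with test compound or vehicle alone. Survival was recorded for each group, and the treated figure was expressed relative to the control figure.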

[1] = dose: 100.0 mg/kg/injection, schedule: Q04DX003 (ip), vehicle: Klucel (hydroxypropylcellulose) (HPC)
[2] = dose: 100.0 mg/kg/injection, schedule: Q01DX001 (ip), vehicle: saline
[3] = dose: 200.0 mg/kg/injection, schedule: Q01DX001 (ip), vehicle: saline
[4] = dose: 400.0 mg/kg/injection, schedule: Q01DX001 (ip), vehicle: saline
[5] = dose: 100.0 mg/kg/injection, schedule: Q01DX009 (ip), vehicle: Klucel (hydroxypropylcellulose) (HPC)
[6] = dose: 400.0 mg/kg/injection, schedule: Q01DX009 (ip), vehicle: Klucel (hydroxypropylcellulose) (HPC)
[7] = dose: 100.0 mg/kg/injection, schedule: Q01DX001 (ip), vehicle: Klucel (hydroxypropylcellulose) (HPC)
[8] = dose: 200.0 mg/kg/injection, schedule: Q01DX001 (ip), vehicle: Klucel (hydroxypropylcellulose) (HPC)
[9] = dose: 200.0 mg/kg/injection, schedule: Q04DX003 (ip), vehicle: Klucel (hydroxypropylcellulose) (HPC)
[10] = dose: 400.0 mg/kg/injection, schedule: Q01DX001 (ip), vehicle: Klucel (hydroxypropylcellulose) (HPC)
[11] = dose: 400.0 mg/kg/injection, schedule: Q04DX003 (ip), vehicle: Klucel (hydroxypropylcellulose) (HPC)
[12] = dose: 100.0 mg/kg/injection, schedule: Q01DX001 (ip), vehicle: other
[13] = dose: 200.0 mg/kg/injection, schedule: Q01DX001 (ip), vehicle: other
[14] = dose: 200.0 mg/kg/injection, schedule: Q01DX009 (ip), vehicle: Klucel (hydroxypropylcellulose) (HPC)
[15] = dose: 400.0 mg/kg/injection, schedule: Q01DX001 (ip), vehicle: other
[16] = dose: 100.0 mg/kg/injection, schedule: Q04DX002 (ip), vehicle: Klucel (hydroxypropylcellulose) (HPC)

Measured: T/C

CCCCCCCCCCCCCCCC[N+](C)(C)C
inactive: dose: 0.93 mg/kg/injection, schedule: Q04DX003 (ip), vehicle: saline 97 % of control | dose: 1.09 mg/kg/injection, schedule: Q01DX009 (ip), vehicle: saline 100 % of control | dose: 1.87 mg/kg/injection, schedule: Q01DX009 (ip), vehicle: saline 92 % of control | dose: 1.87 mg/kg/injection, schedule: Q04DX003 (ip), vehicle: saline 106 % of control | dose: 2.0 mg/kg/injection, schedule: Q01DX015 (ip), vehicle: saline 94 % of control | dose: 2.18 mg/kg/injection, schedule: Q01DX009 (ip), vehicle: saline 100 % of control | dose: 3.75 mg/kg/injection, schedule: Q01DX009 (ip), vehicle: saline 92 % of control | dose: 3.75 mg/kg/injection, schedule: Q04DX003 (ip), vehicle: saline 95 % of control | dose: 4.0 mg/kg/injection, schedule: Q01DX015 (ip), vehicle: saline 95 % of control | dose: 4.37 mg/kg/injection, schedule: Q01DX009 (ip), vehicle: saline 91 % of control | dose: 6.25 mg/kg/injection, schedule: Q04DX003 (ip), vehicle: saline 101 % of control | dose: 7.5 mg/kg/injection, schedule: Q01DX009 (ip), vehicle: saline 92 % of control | dose: 7.5 mg/kg/injection, schedule: Q04DX003 (ip), vehicle: saline 90 % of control | dose: 11.0 mg/kg/injection, schedule: Q01DX009 (ip), vehicle: saline 113 % of control | dose: 12.5 mg/kg/injection, schedule: Q01DX001 (ip), vehicle: saline 95 % of control | dose: 12.5 mg/kg/injection, schedule: Q04DX003 (ip), vehicle: saline 105 % of control | dose: 25.0 mg/kg/injection, schedule: Q01DX001 (ip), vehicle: saline 98 % of control | dose: 25.0 mg/kg/injection, schedule: Q04DX003 (ip), vehicle: carboxymethylcellulose (CMC) 105 % of control | dose: 25.0 mg/kg/injection, schedule: Q04DX003 (ip), vehicle: saline 90 % of control | dose: 35.0 mg/kg/injection, schedule: Q04DX003 (ip), vehicle: saline 88 % of control | dose: 50.0 mg/kg/injection, schedule: Q04DX003 (ip), vehicle: carboxymethylcellulose (CMC) 100 % of control | [1] 103 % of control

C/C(=N/OC(=O)N(C)C)c1cccc(Cl)c1
inactive: dose: 44.0 mg/kg/injection, schedule: Q01DX001 (ip), vehicle: saline 95 % of control and 103 % of control | dose: 66.0 mg/kg/injection, schedule: Q01DX001 (ip), vehicle: saline 95 % of control and 101 % of control | [2] 94 % of control and 95 % of control | dose: 150.0 mg/kg/injection, schedule: Q01DX001 (ip), vehicle: saline 101 % of control and 112 % of control | [3] 97 % of control | [4] 103 % of control

COc1ccc(OC)c(NC(=O)Nc2cc(C(F)(F)F)ccc2Cl)c1
inactive: [5] 104 % of control | [6] 91 % of control

CC(=O)NC1=C(c2ccccc2)C(=O)c2ccccc21
inactive: dose: 45.0 mg/kg/injection, schedule: Q01DX001 (ip), vehicle: Klucel (hydroxypropylcellulose) (HPC) 107 % of control | dose: 65.0 mg/kg/injection, schedule: Q01DX001 (ip), vehicle: Klucel (hydroxypropylcellulose) (HPC) 96 % of control | [7] 100 % of control and 104 % of control | [1] 107 % of control | dose: 150.0 mg/kg/injection, schedule: Q01DX001 (ip), vehicle: Klucel (hydroxypropylcellulose) (HPC) 96 % of control | [8] 96 % of control and 117 % of control and 91 % of control | [9] 107 % of control | dose: 300.0 mg/kg/injection, schedule: Q01DX001 (ip), vehicle: Klucel (hydroxypropylcellulose) (HPC) 104 % of control | [10] 97 % of control and 102 % of control and 103 % of control | [11] 97 % of control

COc1cccc(/C=N\N=C\c2cccc(OC)c2O)c1O
inactive: dose: 100.0 mg/kg/injection, schedule: Q01DX001 (ip), vehicle: saline with Tween-80 91 % of control | dose: 200.0 mg/kg/injection, schedule: Q01DX001 (ip), vehicle: saline with Tween-80 103 % of control and 105 % of control | dose: 400.0 mg/kg/injection, schedule: Q01DX001 (ip), vehicle: saline with Tween-80 94 % of control and 95 % of control

CC(CCl)(CCl)CCl
inactive: dose: 50.0 mg/kg/injection, schedule: Q01DX009 (ip), vehicle: saline sonified 96 % of control | dose: 100.0 mg/kg/injection, schedule: Q01DX001 (ip), vehicle: saline sonified 99 % of control | dose: 100.0 mg/kg/injection, schedule: Q01DX009 (ip), vehicle: saline sonified 106 % of control | dose: 200.0 mg/kg/injection, schedule: Q01DX001 (ip), vehicle: saline sonified 96 % of control | dose: 200.0 mg/kg/injection, schedule: Q01DX009 (ip), vehicle: saline sonified 94 % of control

CCCCC(=O)c1cc(OC)cc(OC)c1
inactive: dose: 50.0 mg/kg/injection, schedule: Q01DX001 (ip), vehicle: other 109 % of control | [7] 95 % of control | [12] 102 % of control | [5] 97 % of control | [8] 95 % of control | [13] 104 % of control | [14] 96 % of control | [10] 98 % of control | [15] 91 % of control | [6] 100 % of control

Cc1ccc(NC(=O)C(Cl)(Cl)Cl)cc1Cl
inactive: [5] 112 % of control | [14] 106 % of control | [6] 109 % of control

COc1cc(C(Br)C(Br)C(=O)c2ccccc2[N+](=O)[O-])cc(OC)c1OC (centres undefined)
inactive: [5] 95 % of control | [14] 95 % of control | [6] 94 % of control

NC(=O)c1ccccc1C(N)=O
inactive: [5] 97 % of control | [1] 100 % of control | [14] 98 % of control | [9] 102 % of control | [6] 93 % of control | [11] 100 % of control

COC1C(O)C(CO)OC1n1ccc(N)nc1=O (centres undefined)
inactive: [2] 95 % of control | [3] 95 % of control | [4] 98 % of control

Cc1ccc([N+](=O)[O-])cc1NC(=O)Oc1ccc2c(C)cc(=O)oc2c1
inactive: [16] 101 % of control | dose: 400.0 mg/kg/injection, schedule: Q04DX002 (ip), vehicle: Klucel (hydroxypropylcellulose) (HPC) 95 % of control

O=C1C=C(c2ccccc2)C(=O)C=C1c1ccccc1
inactive: dose: 6.25 mg/kg/injection, schedule: Q01DX009 (ip), vehicle: water 94 % of control | dose: 12.5 mg/kg/injection, schedule: Q01DX009 (ip), vehicle: water 86 % of control | dose: 25.0 mg/kg/injection, schedule: Q01DX009 (ip), vehicle: water 103 % of control | dose: 25.0 mg/kg/injection, schedule: Q04DX003 (ip), vehicle: gum acacia 94 % of control | dose: 50.0 mg/kg/injection, schedule: Q01DX009 (ip), vehicle: water 86 % of control | dose: 50.0 mg/kg/injection, schedule: Q04DX003 (ip), vehicle: gum acacia 94 % of control | dose: 100.0 mg/kg/injection, schedule: Q04DX003 (ip), vehicle: gum acacia 105 % of control

COc1ccccc1N=Cc1ccccc1O.[Co]
inactive: [12] 94 % of control | [13] 94 % of control | [15] 93 % of control

O=C(O)C(Br)C(Br)C(=O)Nc1ccc(F)cc1 (centres undefined)
inactive: dose: 100.0 mg/kg/injection, schedule: Q04DX002 (ip), vehicle: saline with Tween-80 104 % of control | dose: 200.0 mg/kg/injection, schedule: Q04DX002 (ip), vehicle: saline with Tween-80 93 % of control

Cc1ccc(C/C(Cc2ccccc2)=N/O)cc1
inactive: dose: 25.0 mg/kg/injection, schedule: Q04DX002 (ip), vehicle: Klucel (hydroxypropylcellulose) (HPC) 101 % of control | dose: 50.0 mg/kg/injection, schedule: Q04DX002 (ip), vehicle: Klucel (hydroxypropylcellulose) (HPC) 111 % of control | [16] 93 % of control | dose: 100.0 mg/kg/injection, schedule: Q04DX002 (ip), vehicle: saline 111 % of control | dose: 200.0 mg/kg/injection, schedule: Q04DX002 (ip), vehicle: Klucel (hydroxypropylcellulose) (HPC) 108 % of control | dose: 200.0 mg/kg/injection, schedule: Q04DX002 (ip), vehicle: saline 97 % of control | dose: 400.0 mg/kg/injection, schedule: Q04DX002 (ip), vehicle: saline 87 % of control
